This passage reports KD results from article PMC2195891 (2006).

In the test the test system is human telomeric quadruplex (Htelo), 5'-biotin SPR strand (DNA, G4) GTTAGGGTTAGGGTTAGGGTTAGGGTTAGG
The test is described as follows: SPR, equilibrium response. The following applies: K+ 100 mM (KCl), 50 mM Tris-HCl pH 7.4.

Usually KD stands for the concentration at which binding is half-saturated.

Regarding `C[n+]1ccc(-c2c3nc(c(-c4cc[n+](C)cc4)c4ccc([nH]4)c(-c4cc[n+](C)cc4)c4nc(cc5ccc2[nH]5)C=C4)C=C3)cc1`, the KD (up to 25 μM) turned out to be 5.88 ± 0.90 µM.
Still for that read-out and setting: then `C[n+]1ccc(-c2c3nc(c(-c4cc[n+](C)cc4)c4ccc(cc5nc(cc6ccc2[nH]6)C=C5)[nH]4)C=C3)cc1`, with 18.90 ± 2.80 µM.
As for `C[n+]1ccc(-c2c3nc(cc4ccc([nH]4)c(-c4cc[n+](C)cc4)c4nc(cc5ccc2[nH]5)C=C4)C=C3)cc1`, the dissociation constant (KD) (up to 6.25 μM) came out at 0.83 ± 0.10 µM.
On the same count and under the same terms, then `C[n+]1ccc(-c2c3nc(c(-c4cc[n+](C)cc4)c4ccc([nH]4)c(-c4cc[n+](C)cc4)c4nc(c(-c5cc[n+](C)cc5)c5ccc2[nH]5)C=C4)C=C3)cc1`, with 0.63 ± 0.08 µM.
